Assays:
Test in all cases: KINOMEscan competition binding
Settings in all cases: compound 10.0 µM
[1] = target: RIOK3 (human) (UniProt O14730)
[2] = target: STK17A (human) (UniProt Q9UEE5)
[3] = target: PIP5K1A (human) (UniProt Q99755)
[4] = target: RPS6KA2 KD2 (human) (UniProt Q15349)
[5] = target: AURKB (human) (UniProt Q96GD4)
[6] = target: MAP4K4 (human) (UniProt O95819)
[7] = target: PHKG2 (human) (UniProt P15735)
[8] = target: CHUK (human) (UniProt O15111)
[9] = target: PRKD3 (human) (UniProt O94806)
[10] = target: BMP2K (human) (UniProt Q9NSY1)
[11] = tested on: KIT (human), P10721 [V559D]
[12] = target: STK24 (human) (UniProt Q9Y6E0)
[13] = target: MYLK4 (human) (UniProt Q86YV6)
[14] = tested on: FLT3 (human), P36888 [D835Y]
[15] = target: RIPK2 (human) (UniProt O43353)
Chain of RIPK2 (human) (O43353 whole entry, looked up): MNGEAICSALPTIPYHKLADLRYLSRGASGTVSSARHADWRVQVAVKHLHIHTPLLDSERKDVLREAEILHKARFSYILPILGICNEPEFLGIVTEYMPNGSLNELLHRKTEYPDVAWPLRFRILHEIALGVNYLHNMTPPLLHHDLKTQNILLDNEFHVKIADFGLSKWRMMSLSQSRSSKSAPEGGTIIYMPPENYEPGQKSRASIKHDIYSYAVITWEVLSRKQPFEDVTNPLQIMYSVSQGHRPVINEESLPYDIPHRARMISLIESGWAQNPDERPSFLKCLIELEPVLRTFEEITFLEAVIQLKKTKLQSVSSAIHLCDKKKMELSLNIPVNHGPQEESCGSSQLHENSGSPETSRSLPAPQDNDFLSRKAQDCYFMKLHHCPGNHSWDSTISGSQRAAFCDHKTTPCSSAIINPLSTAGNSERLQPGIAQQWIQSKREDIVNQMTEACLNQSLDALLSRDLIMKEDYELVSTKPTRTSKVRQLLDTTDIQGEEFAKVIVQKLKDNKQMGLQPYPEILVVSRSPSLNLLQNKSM

[16] = target: PIP4K2B (human) (UniProt P78356)
[17] = target: CSNK1G1 (human) (UniProt Q9HCP0)
Chain of CSNK1G1 (human) (Q9HCP0 whole entry, looked up): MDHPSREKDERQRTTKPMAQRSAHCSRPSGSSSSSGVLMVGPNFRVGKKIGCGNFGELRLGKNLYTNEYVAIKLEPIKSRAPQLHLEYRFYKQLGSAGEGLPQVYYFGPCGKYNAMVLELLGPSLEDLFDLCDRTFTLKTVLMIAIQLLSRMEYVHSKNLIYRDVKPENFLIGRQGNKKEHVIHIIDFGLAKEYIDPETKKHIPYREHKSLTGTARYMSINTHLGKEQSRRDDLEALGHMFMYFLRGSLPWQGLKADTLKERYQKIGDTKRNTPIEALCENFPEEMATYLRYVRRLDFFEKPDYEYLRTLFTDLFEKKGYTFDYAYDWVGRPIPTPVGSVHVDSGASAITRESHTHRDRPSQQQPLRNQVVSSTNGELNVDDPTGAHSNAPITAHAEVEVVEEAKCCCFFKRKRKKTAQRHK

[18] = target: RPS6KA6 KD2 (human) (UniProt Q9UK32)
[19] = target: BRSK2 (human) (UniProt Q8IWQ3)
[20] = target: TAOK3 (human) (UniProt Q9H2K8)
[21] = target: GSK3A (human) (UniProt P49840)
[22] = target: SRPK2 (human) (UniProt P78362)
Chain of SRPK2 (human) (P78362 whole entry, looked up): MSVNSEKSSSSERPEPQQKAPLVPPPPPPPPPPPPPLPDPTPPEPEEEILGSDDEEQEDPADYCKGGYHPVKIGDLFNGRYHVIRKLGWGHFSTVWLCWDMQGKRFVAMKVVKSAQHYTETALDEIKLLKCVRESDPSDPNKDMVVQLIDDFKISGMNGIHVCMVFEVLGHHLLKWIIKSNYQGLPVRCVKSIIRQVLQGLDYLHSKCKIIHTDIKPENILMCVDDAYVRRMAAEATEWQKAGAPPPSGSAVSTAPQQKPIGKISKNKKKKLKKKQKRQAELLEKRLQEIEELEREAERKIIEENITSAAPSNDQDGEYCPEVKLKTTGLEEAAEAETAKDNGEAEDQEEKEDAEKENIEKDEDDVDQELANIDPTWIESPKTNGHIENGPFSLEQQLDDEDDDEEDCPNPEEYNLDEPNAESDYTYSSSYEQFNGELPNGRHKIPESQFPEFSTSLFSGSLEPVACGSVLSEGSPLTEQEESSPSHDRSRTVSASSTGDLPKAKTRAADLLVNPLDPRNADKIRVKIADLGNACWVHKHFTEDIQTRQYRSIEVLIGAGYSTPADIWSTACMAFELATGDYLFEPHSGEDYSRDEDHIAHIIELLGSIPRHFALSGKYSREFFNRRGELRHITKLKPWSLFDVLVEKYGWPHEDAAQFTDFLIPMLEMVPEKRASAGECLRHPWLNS

[23] = target: TGFBR2 (human) (UniProt P37173)
Chain of TGFBR2 (human) (P37173 whole entry, looked up): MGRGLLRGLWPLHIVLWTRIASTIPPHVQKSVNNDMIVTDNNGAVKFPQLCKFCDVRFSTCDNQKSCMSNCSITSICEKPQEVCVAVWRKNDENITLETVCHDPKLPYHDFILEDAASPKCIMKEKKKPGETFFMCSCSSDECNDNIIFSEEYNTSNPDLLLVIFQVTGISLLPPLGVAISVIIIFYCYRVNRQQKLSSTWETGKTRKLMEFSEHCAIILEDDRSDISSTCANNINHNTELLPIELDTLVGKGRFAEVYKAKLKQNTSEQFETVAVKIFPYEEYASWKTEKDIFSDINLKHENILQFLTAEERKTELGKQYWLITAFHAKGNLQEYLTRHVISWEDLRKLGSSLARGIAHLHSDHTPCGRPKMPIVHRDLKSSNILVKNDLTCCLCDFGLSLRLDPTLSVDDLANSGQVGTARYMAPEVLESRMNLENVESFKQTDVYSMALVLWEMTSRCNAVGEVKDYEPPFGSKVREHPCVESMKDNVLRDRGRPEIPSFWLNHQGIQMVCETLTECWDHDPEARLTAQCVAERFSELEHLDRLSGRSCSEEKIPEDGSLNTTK

[24] = target: PDGFRB (human) (UniProt P09619)
[25] = target: ACVR1 (human) (UniProt Q04771)
[26] = tested on: FLT3 (human), P36888 [ITD]
[27] = target: TTK (human) (UniProt P33981)
[28] = target: STK33 (human) (UniProt Q9BYT3)
[29] = target: MAP4K2 (human) (UniProt Q12851)
[30] = target: PIM2 (human) (UniProt Q9P1W9)
Chain of PIM2 (human) (Q9P1W9 whole entry, looked up): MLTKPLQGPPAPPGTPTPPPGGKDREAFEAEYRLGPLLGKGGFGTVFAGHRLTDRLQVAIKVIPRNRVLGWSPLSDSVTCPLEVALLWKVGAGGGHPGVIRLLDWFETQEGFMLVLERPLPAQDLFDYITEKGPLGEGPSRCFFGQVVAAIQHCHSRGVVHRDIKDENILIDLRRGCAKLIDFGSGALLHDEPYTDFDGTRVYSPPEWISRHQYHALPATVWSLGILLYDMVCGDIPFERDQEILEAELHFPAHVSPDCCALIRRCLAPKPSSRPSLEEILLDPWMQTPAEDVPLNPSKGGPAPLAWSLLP

[31] = target: BMPR1B (human) (UniProt O00238)
[32] = tested on: FLT3 (human), P36888 [D835H]
[33] = target: CSNK1D (human) (UniProt P48730)
Chain of CSNK1D (human) (P48730 whole entry, looked up): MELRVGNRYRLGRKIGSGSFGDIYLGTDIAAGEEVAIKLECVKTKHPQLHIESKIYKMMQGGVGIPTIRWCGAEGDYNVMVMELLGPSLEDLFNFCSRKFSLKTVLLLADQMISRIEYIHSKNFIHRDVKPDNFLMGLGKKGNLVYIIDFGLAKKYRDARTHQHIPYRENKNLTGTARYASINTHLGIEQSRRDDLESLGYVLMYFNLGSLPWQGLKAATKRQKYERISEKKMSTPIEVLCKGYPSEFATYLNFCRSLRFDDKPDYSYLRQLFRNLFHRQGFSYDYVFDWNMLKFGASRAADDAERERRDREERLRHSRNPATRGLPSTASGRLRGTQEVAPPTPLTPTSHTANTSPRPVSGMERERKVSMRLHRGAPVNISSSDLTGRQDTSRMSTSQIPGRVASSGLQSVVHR

[34] = target: SRPK3 (human) (UniProt Q9UPE1)
[35] = tested on: FLT3 (human), P36888 [N841I]
[36] = target: TNK1 (human) (UniProt Q13470)
Chain of TNK1 (human) (Q13470 whole entry, looked up): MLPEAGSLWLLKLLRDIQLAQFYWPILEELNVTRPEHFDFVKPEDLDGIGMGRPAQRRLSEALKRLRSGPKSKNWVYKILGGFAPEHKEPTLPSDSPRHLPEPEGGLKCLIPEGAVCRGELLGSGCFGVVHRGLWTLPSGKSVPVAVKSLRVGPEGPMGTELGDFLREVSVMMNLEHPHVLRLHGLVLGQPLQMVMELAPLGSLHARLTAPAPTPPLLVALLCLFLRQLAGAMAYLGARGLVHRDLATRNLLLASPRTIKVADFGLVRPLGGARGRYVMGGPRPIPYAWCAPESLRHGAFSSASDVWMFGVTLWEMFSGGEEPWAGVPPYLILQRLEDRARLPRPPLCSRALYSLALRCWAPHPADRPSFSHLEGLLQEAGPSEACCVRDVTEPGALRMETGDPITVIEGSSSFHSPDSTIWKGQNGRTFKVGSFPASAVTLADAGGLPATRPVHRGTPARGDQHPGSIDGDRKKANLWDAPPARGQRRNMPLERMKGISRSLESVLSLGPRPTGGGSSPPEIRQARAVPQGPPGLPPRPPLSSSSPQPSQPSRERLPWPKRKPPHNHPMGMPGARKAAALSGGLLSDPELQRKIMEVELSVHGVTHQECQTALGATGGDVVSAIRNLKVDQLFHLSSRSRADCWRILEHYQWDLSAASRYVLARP

[37] = target: STK11 (human) (UniProt Q15831)
[38] = target: PLK4 (human) (UniProt O00444)
Chain of PLK4 (human) (O00444 whole entry, looked up): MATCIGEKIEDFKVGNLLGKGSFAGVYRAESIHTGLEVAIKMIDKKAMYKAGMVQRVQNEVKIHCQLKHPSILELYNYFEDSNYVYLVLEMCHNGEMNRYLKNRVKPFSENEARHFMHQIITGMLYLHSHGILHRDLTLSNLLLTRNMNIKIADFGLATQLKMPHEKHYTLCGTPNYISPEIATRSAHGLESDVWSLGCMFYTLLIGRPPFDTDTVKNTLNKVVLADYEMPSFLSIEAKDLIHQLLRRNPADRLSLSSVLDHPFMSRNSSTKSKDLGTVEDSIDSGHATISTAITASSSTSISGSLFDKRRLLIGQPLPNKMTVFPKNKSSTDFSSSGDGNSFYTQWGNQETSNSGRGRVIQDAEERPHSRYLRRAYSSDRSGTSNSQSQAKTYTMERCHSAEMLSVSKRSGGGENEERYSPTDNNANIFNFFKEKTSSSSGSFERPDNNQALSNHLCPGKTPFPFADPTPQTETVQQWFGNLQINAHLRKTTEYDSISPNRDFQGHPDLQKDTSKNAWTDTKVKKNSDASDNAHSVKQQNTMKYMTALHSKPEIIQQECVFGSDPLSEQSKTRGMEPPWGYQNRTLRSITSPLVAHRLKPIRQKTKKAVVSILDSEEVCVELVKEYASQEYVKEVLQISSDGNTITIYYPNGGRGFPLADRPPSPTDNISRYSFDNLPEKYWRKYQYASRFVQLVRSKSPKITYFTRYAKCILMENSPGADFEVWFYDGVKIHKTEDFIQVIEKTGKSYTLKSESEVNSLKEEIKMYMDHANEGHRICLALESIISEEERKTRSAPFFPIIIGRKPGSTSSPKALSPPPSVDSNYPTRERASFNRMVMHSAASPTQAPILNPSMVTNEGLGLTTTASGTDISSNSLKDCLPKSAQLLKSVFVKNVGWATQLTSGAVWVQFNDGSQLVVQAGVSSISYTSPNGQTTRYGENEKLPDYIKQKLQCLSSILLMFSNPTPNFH

[39] = target: CSNK1G3 (human) (UniProt Q9Y6M4)
[40] = target: MAPK8 (human) (UniProt P45983)
[41] = target: DMPK (human) (UniProt Q09013)
[42] = target: MYLK3 (human) (UniProt Q32MK0)

Chain of STK17A (human) (Q9UEE5 whole entry, looked up): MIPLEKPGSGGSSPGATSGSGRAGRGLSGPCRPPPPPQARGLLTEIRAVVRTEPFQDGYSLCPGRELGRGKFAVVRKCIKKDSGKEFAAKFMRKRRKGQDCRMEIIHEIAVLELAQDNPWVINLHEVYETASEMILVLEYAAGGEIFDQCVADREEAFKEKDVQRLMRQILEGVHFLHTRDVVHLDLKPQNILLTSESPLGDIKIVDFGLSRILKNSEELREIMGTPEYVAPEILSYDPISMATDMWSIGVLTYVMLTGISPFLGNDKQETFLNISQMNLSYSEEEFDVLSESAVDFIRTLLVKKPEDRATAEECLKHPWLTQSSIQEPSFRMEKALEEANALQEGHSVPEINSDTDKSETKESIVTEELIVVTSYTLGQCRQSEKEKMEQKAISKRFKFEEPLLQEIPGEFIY

## CN1CCN(c2ccc(C(=O)Nc3ncc4c(n3)N(C)c3ccccc3C(=O)N4C)cc2)CC1
[1]
  kinase still bound, per cent of control: 71%
[2]
  kinase still bound, per cent of control: 100%
[3]
  kinase still bound, per cent of control: 99%
[4]
  kinase still bound, per cent of control: 64%
[5]
  kinase still bound, per cent of control: 74%
[6]
  kinase still bound, per cent of control: 100%
[7]
  kinase still bound, per cent of control: 90%
[8]
  kinase still bound, per cent of control: 83%
[9]
  kinase still bound, per cent of control: 90%
[10]
  kinase still bound, per cent of control: 100%
[11]
  kinase still bound, per cent of control: 89%
[12]
  kinase still bound, per cent of control: 100%
[13]
  kinase still bound, per cent of control: 100%
[14]
  kinase still bound, per cent of control: 79%
[15]
  kinase still bound, per cent of control: 100%
[16]
  kinase still bound, per cent of control: 100%
[17]
  kinase still bound, per cent of control: 100%
[18]
  kinase still bound, per cent of control: 100%
[19]
  kinase still bound, per cent of control: 100%
[20]
  kinase still bound, per cent of control: 92%
[21]
  kinase still bound, per cent of control: 100%
[22]
  kinase still bound, per cent of control: 100%
[23]
  kinase still bound, per cent of control: 100%
[24]
  kinase still bound, per cent of control: 80%
[25]
  kinase still bound, per cent of control: 91%
[26]
  kinase still bound, per cent of control: 100%
[27]
  kinase still bound, per cent of control: 95%
[28]
  kinase still bound, per cent of control: 100%
[29]
  kinase still bound, per cent of control: 100%
[30]
  kinase still bound, per cent of control: 100%
[31]
  kinase still bound, per cent of control: 100%
[32]
  kinase still bound, per cent of control: 100%
[33]
  kinase still bound, per cent of control: 85%
[34]
  kinase still bound, per cent of control: 100%
[35]
  kinase still bound, per cent of control: 78%
[36]
  kinase still bound, per cent of control: 92%
[37]
  kinase still bound, per cent of control: 100%
[38]
  kinase still bound, per cent of control: 84%
[39]
  kinase still bound, per cent of control: 100%
[40]
  kinase still bound, per cent of control: 100%
[41]
  kinase still bound, per cent of control: 100%
[42]
  kinase still bound, per cent of control: 100%
